Source: US7173004B2, “Macrocyclic isoquinoline peptide inhibitors of hepatitis C virus” (Bristol-Myers Squibb Company, priority 2003, dated 2007)

tested on: HCV replicon (HCV 1b-377-neo replicon cells, Huh7); experiment: HCV replicon cell-based FRET assay; settings: Hepatitis C virus, Huh-7
Summary of the method: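 Huh7 cells carrying a neo-selectable genotype 1b HCV replicon (~3,000 RNA copies/cell) were seeded at 1.5×10^4 cells/well and treated 4 days at 37 °C (0.5% DMSO final). CC50 was read by alamar Blue (4 h, ex 530/em 580 nm). Lysates with 10 μM EDANS/DABCYL NS3 protease FRET peptide were read kinetically (ex 340/em 490 nm, 25 °C, ~15 min) for % inhibition.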

`CCC(C)(C)OC(=O)NC1CCCCCC=CC2CC2(C(=O)NS(=O)(=O)C2CC2)NC(=O)C2CC(Oc3nccc4ccccc34)CN2C1=O` (centres unmarked) [Compound 125] and `CC(C)(OC(=O)NC1CCCCCC=CC2CC2(C(=O)NS(=O)(=O)C2CC2)NC(=O)C2CC(Oc3nccc4ccccc34)CN2C1=O)C(Cl)(Cl)Cl` (centres unmarked) [Compound 124] cannot be ordered by EC50: less than 0.05 µM for the first, less than 0.05 µM for the second.

`COc1ccc2c(OC3CC4C(=O)NC5(C(=O)NS(=O)(=O)C6CC6)CC5C=CCOCCCC(NC(=O)OC5CCCC5)C(=O)N4C3)nc(-c3ccccc3)cc2c1` (centres unmarked) [Compound 99] and `COc1ccc2c(OC3CC4C(=O)NC5(C(=O)NS(=O)(=O)C6CC6)CC5C=CCCCOCC(NC(=O)OC5CCCC5)C(=O)N4C3)nc(-c3ccccc3)cc2c1` (centres unmarked) [Compound 94] cannot be ordered by EC50: less than 0.05 µM for the first, less than 0.05 µM for the second.

`CC(C)(C)OC(=O)NC1CN(C(=O)C2CC2)CCCC=CC2CC2(C(=O)NS(=O)(=O)C2CC2)NC(=O)C2CC(Oc3nccc4ccccc34)CN2C1=O` (centres unmarked) [Compound 152] and `COC(=O)N1CCC/C=C\[C@@H]2C[C@@]2(C(=O)NS(=O)(=O)C2CC2)NC(=O)[C@@H]2C[C@@H](Oc3nccc4ccccc34)CN2C(=O)[C@@H](NC(=O)OC(C)(C)C)C1` [Compound 148] fall in the same range of EC50: 0.05 to 0.5 µM for the first, 0.05 to 0.5 µM for the second.

`CNc1ccc(-c2cc3cc(OC)ccc3c(OC3CC4C(=O)NC5(C(=O)NS(=O)(=O)C6CC6)CC5C=CCOCCCC(NC(=O)OC(C)(C)C)C(=O)N4C3)n2)cc1` (centres unmarked) [Compound 113] and `COc1ccc2c(OC3CC4C(=O)NC5(C(=O)NS(=O)(=O)C6CC6)CC5C=CCOCCCC(NC(=O)OC(C)(C)C)C(=O)N4C3)nc(-c3ccc(N(C)C=O)cc3)cc2c1` (centres unmarked) [Compound 114] cannot be ordered by EC50: less than 0.05 µM for the first, less than 0.05 µM for the second.

`COc1ccc2c(OC3CC4C(=O)NC5(C(=O)NS(=O)(=O)C6CC6)CC5C=CCCCOCC(NC(=O)NC(C)(C)C)C(=O)N4C3)nc(-c3ccc(N(C)C)cc3)cc2c1` (centres unmarked) [Compound 108] and `COc1ccc2c(OC3CC4C(=O)NC5(C(=O)NS(=O)(=O)C6CC6)CC5C=CCCCOCC(NC(=O)OC(C)C)C(=O)N4C3)nc(-c3ccc(N(C)C)cc3)cc2c1` (centres unmarked) [Compound 109] cannot be ordered by EC50: less than 0.05 µM for the first, less than 0.05 µM for the second.

First: CC(C)(C)COC(=O)N1CCCC=CC2CC2(C(=O)NS(=O)(=O)C2CC2)NC(=O)C2CC(Oc3nccc4ccccc34)CN2C(=O)C(NC(=O)OC(C)(C)C)C1 (centres unmarked) [Compound 149]
Second: CN1CCC/C=C\[C@@H]2C[C@@]2(C(=O)NS(=O)(=O)C2CC2)NC(=O)[C@@H]2C[C@@H](Oc3nccc4ccccc34)CN2C(=O)[C@@H](NC(=O)OC(C)(C)C)C1 [Compound 147]
The EC50 of the first is higher: 0.05 to 0.5 µM for the first, less than 0.05 µM for the second. The second is the more potent here.

First: COc1ccc2c(OC3CC4C(=O)NC5(C(=O)NS(=O)(=O)C6CC6)CC5C=CCOCCCC(NC(=O)N5CCCC5)C(=O)N4C3)nc(-c3ccccc3)cc2c1 (centres unmarked) [Compound 100]
Second: COc1ccc2c(OC3CC4C(=O)NC5(C(=O)NS(=O)(=O)C6CC6)CC5C=CCOCCCC(NC(=O)N5CCNC5=O)C(=O)N4C3)nc(-c3ccccc3)cc2c1 (centres unmarked) [Compound 106]
The EC50 of the first is lower: less than 0.05 µM for the first, 0.5 to 5 µM for the second.

`COc1ccc2c(OC3CC4C(=O)NC5(C(=O)NS(=O)(=O)C6CC6)CC5C=CCCCCCC(NC(=O)NC(C)(C)C)C(=O)N4C3)nccc2c1` (centres unmarked) [Compound 135] and `COc1ccc2c(OC3CC4C(=O)NC5(C(=O)NS(=O)(=O)C6CC6)CC5C=CCCCOCC(NC(=O)NC(C)(C)C)C(=O)N4C3)nccc2c1` (centres unmarked) [Compound 86] cannot be ordered by EC50: less than 0.05 µM for the first, less than 0.05 µM for the second.

`COc1ccc2c(OC3CC4C(=O)NC5(C(=O)NS(=O)(=O)C6CC6)CC5C=CCCCCCC(NC(=O)OC(C)(C)C)C(=O)N4C3)nccc2c1OC` (centres unmarked) [Compound 134] and `COc1cccc2c(OC3CC4C(=O)NC5(C(=O)NS(=O)(=O)C6CC6)CC5C=CCCCCCC(NC(=O)OC(C)(C)C)C(=O)N4C3)nccc12` (centres unmarked) [Compound 133] cannot be ordered by EC50: less than 0.05 µM for the first, less than 0.05 µM for the second.

`COc1ccc2c(OC3CC4C(=O)NC5(C(=O)NS(=O)(=O)C6CC6)CC5C=CCCCOCC(NC(=O)OCC(C)(C)C)C(=O)N4C3)nc(-c3ccccc3)cc2c1` (centres unmarked) [Compound 95] and `COc1ccc2c(OC3CC4C(=O)NC5(C(=O)NS(=O)(=O)C6CC6)CC5C=CCCCOCC(NC(=O)NC(C)(C)C)C(=O)N4C3)nc(-c3ccccc3)cc2c1` (centres unmarked) [Compound 92] cannot be ordered by EC50: less than 0.05 µM for the first, less than 0.05 µM for the second.

`COc1ccc2c(OC3CC4C(=O)NC5(C(=O)NS(=O)(=O)C6CC6)CC5C=CCCCOCC(NC(=O)N5CCCC5)C(=O)N4C3)nc(-c3ccc(N(C)C)cc3)cc2c1` (centres unmarked) [Compound 111] and `COc1ccc2c(OC3CC4C(=O)NC5(C(=O)NS(=O)(=O)C6CC6)CC5C=CCCCOCC(NC(=O)OC5CCCC5)C(=O)N4C3)nc(-c3ccc(N(C)C)cc3)cc2c1` (centres unmarked) [Compound 110] cannot be ordered by EC50: less than 0.05 µM for the first, less than 0.05 µM for the second.

Compared with `COc1ccc2c(OC3CC4C(=O)NC5(C(=O)NS(=O)(=O)C6CC6)CC5C=CCOCCCC(NC(=O)NC(C)(C)C)C(=O)N4C3)nc(-c3ccccc3)cc2c1` (centres unmarked) [Compound 102], `COc1ccc2c(OC3CC4C(=O)NC5(C(=O)NS(=O)(=O)C6CC6)CC5C=CCOCCCC(NC(=S)NC5CC5)C(=O)N4C3)nc(-c3ccccc3)cc2c1` (centres unmarked) [Compound 104] is higher in EC50: less than 0.05 µM for the first, 0.05 to 0.5 µM for the second. The first is the more potent here.

`COc1ccc2c(OC3CC4C(=O)NC5(C(=O)NS(=O)(=O)C6CC6)CC5C=CCCCOCC(NC(=O)OC5CCCC5)C(=O)N4C3)nccc2c1` (centres unmarked) [Compound 90] and `COc1ccc2c(OC3CC4C(=O)NC5(C(=O)NS(=O)(=O)C6CC6)CC5C=CCCCOCC(NC(=O)NC5CCCC5)C(=O)N4C3)nccc2c1` (centres unmarked) [Compound 87] cannot be ordered by EC50: less than 0.05 µM for the first, less than 0.05 µM for the second.

First: O=CNC1CCCCCC=CC2CC2(C(=O)NS(=O)(=O)C2CC2)NC(=O)C2CC(Oc3nccc4ccccc34)CN2C1=O (centres unmarked) [Compound 119]
Second: CCSC(=O)NC1CCCCCC=CC2CC2(C(=O)NS(=O)(=O)C2CC2)NC(=O)C2CC(Oc3nccc4ccccc34)CN2C1=O (centres unmarked) [Compound 118]
The EC50 of the first is higher: 0.05 to 0.5 µM for the first, less than 0.05 µM for the second. The second is the more potent here.

`CC(C)(C)CC(C)(C)NC(=O)NC1CCCCCC=CC2CC2(C(=O)NS(=O)(=O)C2CC2)NC(=O)C2CC(Oc3nccc4ccccc34)CN2C1=O` (centres unmarked) [Compound 129] and `CC(C)(C)NC(=O)N[C@H]1CCCCC/C=C\[C@@H]2C[C@@]2(C(=O)NS(=O)(=O)C2CC2)NC(=O)[C@@H]2C[C@@H](Oc3nccc4ccccc34)CN2C1=O` [Compound 126] cannot be ordered by EC50: less than 0.05 µM for the first, less than 0.05 µM for the second.

`CCC1(S(=O)(=O)NC(=O)C23CC2C=CCCCSCC(NC(=O)OC(C)(C)C)C(=O)N2CC(Oc4nccc5cc(OC)ccc45)CC2C(=O)N3)CC1` (centres unmarked) [Compound 121] and `COc1ccc2c(OC3CC4C(=O)NC5(C(=O)NS(=O)(=O)C6(C)CC6)CC5C=CCCCSCC(NC(=O)OC(C)(C)C)C(=O)N4C3)nccc2c1` (centres unmarked) [Compound 115] cannot be ordered by EC50: less than 0.05 µM for the first, less than 0.05 µM for the second.

First: COc1ccc2c(O[C@@H]3C[C@H]4C(=O)N[C@]5(C(=O)NS(=O)(=O)C6CC6)C[C@H]5/C=C\CCCOC[C@H](NC(=O)OC(C)(C)C)C(=O)N4C3)nccc2c1 [Compound 85, (1S,4R,6S,14S,18R)-[7-cis-4-Cyclopropanesulfonylaminocarbonyl-18-(6-methoxy-isoquinolin-1-yloxy)-2,15-dioxo-12-oxa-3,16-diaza-tricyclo[14.3.0.0^4,6]nonadec-7-en-14-yl]-carbamic acid, tert-butyl ester]
Second: COc1ccc2c(O[C@@H]3C[C@H]4C(=O)N[C@]5(C(=O)NS(=O)(=O)C6CC6)C[C@H]5/C=C\CCCSC(C)(C)[C@H](NC(=O)OC(C)(C)C)C(=O)N4C3)nccc2c1 [Compound 80, (1S,4R,6S,14R,18R)-[7-cis-4-Cyclopropanesulfonylaminocarbonyl-13,13-dimethyl-18-(6-methoxyisoquinolin-1-yloxy)-2,15-dioxo-12-thia-3,16-diaza-tricyclo[14.3.0.0^4,6]nonadec-7-en-14-yl]carbamic acid, tert-butyl ester]
The EC50 of the first is lower: less than 0.05 µM for the first, 0.05 to 0.5 µM for the second.

`CC(C)(C)OC(=O)N[C@H]1CN(S(=O)(=O)c2ccccc2[N+](=O)[O-])CCC/C=C\[C@@H]2C[C@@]2(C(=O)NS(=O)(=O)C2CC2)NC(=O)[C@@H]2C[C@@H](Oc3nccc4ccccc34)CN2C1=O` [Compound 145] and `CC(C)(C)OC(=O)N[C@H]1CN(S(C)(=O)=O)CCC/C=C\[C@@H]2C[C@@]2(C(=O)NS(=O)(=O)C2CC2)NC(=O)[C@@H]2C[C@@H](Oc3nccc4ccccc34)CN2C1=O` [Compound 153] fall in the same range of EC50: 0.05 to 0.5 µM for the first, 0.05 to 0.5 µM for the second.

First: COc1ccc2c(OC3CC4C(=O)NC5(C(=O)NS(=O)(=O)C6CC6)CC5C=CCCCSCC(N)C(=O)N4C3)nccc2c1 (centres unmarked) [Compound 117]
Second: COc1ccc2c(OC3CC4C(=O)NC5(C(=O)NS(=O)(=O)C6CC6)CC5C=CCCCSC(C)(C)C(N)C(=O)N4C3)nccc2c1 (centres unmarked) [Compound 83]
The EC50 of the first is lower: 0.05 to 0.5 µM for the first, 5 to 50 µM for the second.

First: CC(C)(C)OC(=O)N[C@H]1CNCCC/C=C\[C@@H]2C[C@@]2(C(=O)NS(=O)(=O)C2CC2)NC(=O)[C@@H]2C[C@@H](Oc3nccc4ccccc34)CN2C1=O [Compound 151]
Second: CC(C)(C)OC(=O)NC1CCCCCC=CC2CC2(C(=O)NS(=O)(=O)C2CC2)NC(=O)C2CC(Oc3nccc4c(Cl)cccc34)CN2C1=O (centres unmarked) [Compound 130]
The EC50 of the first is higher: 0.05 to 0.5 µM for the first, less than 0.05 µM for the second.

Compared with `COc1ccc2c(OC3CC4C(=O)NC5(C(=O)NS(=O)(=O)C6CC6)CC5C=CCOCCCC(NC(=O)Nc5ccc(C#N)cc5)C(=O)N4C3)nc(-c3ccccc3)cc2c1` (centres unmarked) [Compound 105], `COc1ccc2c(OC3CC4C(=O)NC5(C(=O)NS(=O)(=O)C6CC6)CC5C=CCCCOCC(NC(=O)OC(C)C)C(=O)N4C3)nc(-c3ccccc3)cc2c1` (centres unmarked) [Compound 96] is lower in EC50: 0.05 to 0.5 µM for the first, less than 0.05 µM for the second. The second is the more potent here.

`COc1ccc2c(OC3CC4C(=O)NC5(C(=O)NS(=O)(=O)C6CC6)CC5C=CCCCSC(C)(C)C(NC(=O)NC5CCCC5)C(=O)N4C3)nccc2c1` (centres unmarked) [Compound 82] and `COc1ccc2c(OC3CC4C(=O)NC5(C(=O)NS(=O)(=O)C6CC6)CC5C=CCCCSC(C)(C)C(NC(=O)NC(C)(C)C)C(=O)N4C3)nccc2c1` (centres unmarked) [Compound 81] fall in the same range of EC50: 0.05 to 0.5 µM for the first, 0.05 to 0.5 µM for the second.

`CC(C)NC(=O)NC1CCCCCC=CC2CC2(C(=O)NS(=O)(=O)C2CC2)NC(=O)C2CC(Oc3nccc4ccccc34)CN2C1=O` (centres unmarked) [Compound 128] and `O=C(NC1CCCC1)NC1CCCCCC=CC2CC2(C(=O)NS(=O)(=O)C2CC2)NC(=O)C2CC(Oc3nccc4ccccc34)CN2C1=O` (centres unmarked) [Compound 127] cannot be ordered by EC50: less than 0.05 µM for the first, less than 0.05 µM for the second.

With `CC1(COC(=O)NC2CCCCCC=CC3CC3(C(=O)NS(=O)(=O)C3CC3)NC(=O)C3CC(Oc4nccc5ccccc45)CN3C2=O)CC1` (centres unmarked) [Compound 122] the EC50 was less than 0.05 µM.
